From publication PMC10660663 come the findings set out here.

Data set [1] is described as follows: SuFEx S-O bond formation: di-sulfonimidoyl fluoride (mixture of diastereomers) + diphenol (1:1), DBU 2.1 equiv, [1+1] macrocyclisation, one pot. The following applies: the molecule shown is the open-chain precursor, MeCN, 20.0 mM, 50.0 °C, 3.0 h.
Data set [2] is described as follows: Enantiospecific SuFEx S-O bond formation: enantiopure di-sulfonimidoyl fluoride + sodium diphenolate (1:1), [1+1] macrocyclisation, one pot. Conditions: the molecule shown is the open-chain precursor, MeCN, 12.5 mM, 60.0 °C, 6.0 h.

In the case of `Cc1ccc(S(=O)(F)=NC(=O)c2ccc(C(=O)N=S(=O)(Oc3ccc(C(C)(C)c4cccc(C(C)(C)c5ccc(O)cc5)c4)cc3)c3ccc(C)cc3)cc2)cc1` (stereo not drawn), the ring closure, isolated yield in data set [1] (25-membered ring) came out at 74%.
On to `Cc1ccc(S(=O)(F)=NC(=O)c2ccc(C(=O)N=S(=O)(Oc3ccc(SSc4ccc(O)cc4)cc3)c3ccc(C)cc3)cc2)cc1` (stereo not drawn) [3a], for which the ring closure, isolated yield in data set [1] (22-membered ring) amounted to 96%.
On the same count and under the same terms, to `CCC(c1ccc(O)cc1)C(CC)c1ccc(OS(=O)(=NC(=O)c2ccc(C(=O)N=S(=O)(F)c3ccc(C)cc3)cc2)c2ccc(C)cc2)cc1` (stereo not drawn) [3b] belongs 61%.
`Cc1ccc(S(=O)(F)=NC(=O)c2ccc(C(=O)N=S(=O)(Oc3cccc(Oc4cccc(Oc5cccc(O)c5)c4)c3)c3ccc(C)cc3)cc2)cc1` (stereo not drawn) [3d]: in data set [1] (23-membered ring), the ring closure, isolated yield was determined as 67%.
Consider `Cc1ccc(S(=O)(F)=NC(=O)c2ccc(C(=O)N=S(=O)(Oc3ccccc3CNCCCCCCNCc3ccccc3O)c3ccc(C)cc3)cc2)cc1` (stereo not drawn) [3e], for which the ring closure, isolated yield in data set [1] (26-membered ring) was determined as 91%.
As for `Cc1ccc(S(=O)(F)=NC(=O)c2ccc(C(=O)N=S(=O)(Oc3ccccc3CNCCNCc3ccccc3O)c3ccc(C)cc3)cc2)cc1` (stereo not drawn) [3f], the ring closure, isolated yield in data set [1] (22-membered ring) was found to be 87%.
As for `Cc1ccc(S(=O)(F)=NC(=O)c2ccc(C(=O)N=S(=O)(Oc3ccc(OCCOc4ccc(O)cc4)cc3)c3ccc(C)cc3)cc2)cc1` (stereo not drawn) [3g], the ring closure, isolated yield in data set [1] (24-membered ring) came to 79%.
Consider `Cc1ccc(S(=O)(F)=NC(=O)c2ccc(C(=O)N=S(=O)(Oc3ccc(OCCCCCCCCOc4ccc(O)cc4)cc3)c3ccc(C)cc3)cc2)cc1` (stereo not drawn) [3h], for which the ring closure, isolated yield in data set [1] (30-membered ring) stood at 62%.
`Cc1ccc([S@](=O)(F)=NC(=O)c2ccc(Oc3ccc(C(=O)N=[S@](=O)(Oc4ccc(Cc5ccc([O-])cc5)cc4)c4ccc(C)cc4)cc3)cc2)cc1` [(R,R)-3Aa]: the ring closure, isolated yield in data set [2] (26-membered ring) was determined as 12%.
As to `Cc1ccc([S@](=O)(F)=NC(=O)c2ccc(Oc3ccc(C(=O)N=[S@](=O)(Oc4ccc(Oc5ccc([O-])cc5)cc4)c4ccc(C)cc4)cc3)cc2)cc1` [(R,R)-3Ab], the ring closure, isolated yield in data set [2] (26-membered ring) was found to be 10%.
Still for that read-out and setting: for `Cc1ccc([S@](=O)(F)=NC(=O)c2ccc(Oc3ccc(C(=O)N=[S@](=O)(Oc4ccc(C(C)(C)c5ccc([O-])cc5)cc4)c4ccc(C)cc4)cc3)cc2)cc1` [(R,R)-3Ac] the value was 14%; for `Cc1ccc([S@](=O)(F)=NC(=O)c2ccc(Oc3ccc(C(=O)N=[S@](=O)(Oc4ccc(C(c5ccc([O-])cc5)(C(F)(F)F)C(F)(F)F)cc4)c4ccc(C)cc4)cc3)cc2)cc1` [(R,R)-3Ad], 12%.
As for `Cc1ccc([S@](=O)(F)=NC(=O)c2ccc(C(=O)N=[S@](=O)(Oc3ccc(C(C)(C)c4cccc(C(C)(C)c5ccc([O-])cc5)c4)cc3)c3ccc(C)cc3)cc2)cc1` [(R,R)-3c], in data set [2] (25-membered ring), the ring closure, isolated yield worked out at 35%.
For the compound `Cc1ccc([S@](=O)(F)=NC(=O)c2ccc(Oc3ccc(C(=O)N=[S@](=O)(Oc4ccc(C(C)(C)c5cccc(C(C)(C)c6ccc([O-])cc6)c5)cc4)c4ccc(C)cc4)cc3)cc2)cc1` [(R,R)-3o (diphenyl ether)], the ring closure, isolated yield in data set [2] (30-membered ring) came to 65%.
Regarding `Cc1ccc([S@](=O)(F)=NC(=O)c2ccc(C(=O)N=[S@](=O)(Oc3ccc(Cc4ccc([O-])cc4)cc3)c3ccc(C)cc3)cc2)cc1` [(R,R)-3u], the ring closure, isolated yield in data set [2] (21-membered ring) was determined as 42%.
Same read-out and setting: for `Cc1ccc([S@](=O)(F)=NC(=O)c2ccc(C(=O)N=[S@](=O)(Oc3ccc(Oc4ccc([O-])cc4)cc3)c3ccc(C)cc3)cc2)cc1` [(R,R)-3v] the value was 26%; for `Cc1ccc([S@](=O)(F)=NC(=O)c2ccc(C(=O)N=[S@](=O)(Oc3ccc(C(C)(C)c4ccc([O-])cc4)cc3)c3ccc(C)cc3)cc2)cc1` [(R,R)-3w], 54%.
The same measure, in the same setting: for `Cc1ccc([S@](=O)(F)=NC(=O)c2ccc(C(=O)N=[S@](=O)(Oc3ccc(C(c4ccc([O-])cc4)(C(F)(F)F)C(F)(F)F)cc3)c3ccc(C)cc3)cc2)cc1` [(R,R)-3x] the value was 35%.
Take `Cc1ccc([S@](=O)(F)=NC(=O)c2ccc(-c3ccc(C(=O)N=[S@](=O)(Oc4ccc(C(C)(C)c5cccc(C(C)(C)c6ccc([O-])cc6)c5)cc4)c4ccc(C)cc4)cc3)cc2)cc1` [(R,R)-3y]: in data set [2] (29-membered ring), the ring closure, isolated yield was determined as 27%.
In the case of `Cc1ccc([S@@](=O)(F)=NC(=O)c2ccc(Oc3ccc(C(=O)N=[S@@](=O)(Oc4ccc(Cc5ccc([O-])cc5)cc4)c4ccc(C)cc4)cc3)cc2)cc1` [(S,S)-3Aa], the ring closure, isolated yield in data set [2] (26-membered ring) stood at 12%.
On the same count and under the same terms, to `Cc1ccc([S@@](=O)(F)=NC(=O)c2ccc(Oc3ccc(C(=O)N=[S@@](=O)(Oc4ccc(Oc5ccc([O-])cc5)cc4)c4ccc(C)cc4)cc3)cc2)cc1` [(S,S)-3Ab] belongs 14%; to `Cc1ccc([S@@](=O)(F)=NC(=O)c2ccc(Oc3ccc(C(=O)N=[S@@](=O)(Oc4ccc(C(C)(C)c5ccc([O-])cc5)cc4)c4ccc(C)cc4)cc3)cc2)cc1` [(S,S)-3Ac], 16%.
For `Cc1ccc([S@@](=O)(F)=NC(=O)c2ccc(Oc3ccc(C(=O)N=[S@@](=O)(Oc4ccc(C(c5ccc([O-])cc5)(C(F)(F)F)C(F)(F)F)cc4)c4ccc(C)cc4)cc3)cc2)cc1` [(S,S)-3Ad], the ring closure, isolated yield in data set [2] (26-membered ring) came to 20%.
Regarding `Cc1ccc([S@@](=O)(F)=NC(=O)c2ccc(C(=O)N=[S@@](=O)(Oc3ccc(SSc4ccc([O-])cc4)cc3)c3ccc(C)cc3)cc2)cc1` [(S,S)-3a], in data set [2] (22-membered ring), the ring closure, isolated yield turned out to be 93%.
Turning to `Cc1ccc([S@@](=O)(F)=NC(=O)c2ccc(C(=O)N=[S@@](=O)(Oc3ccc(C(C)(C)c4cccc(C(C)(C)c5ccc([O-])cc5)c4)cc3)c3ccc(C)cc3)cc2)cc1` [(S,S)-3c], the ring closure, isolated yield in data set [2] (25-membered ring) was found to be 42%.
In the case of `Cc1ccc([S@@](=O)(F)=NC(=O)c2ccc(C(=O)N=[S@@](=O)(Oc3cccc(Oc4cccc(Oc5cccc([O-])c5)c4)c3)c3ccc(C)cc3)cc2)cc1` [(S,S)-3d], in data set [2] (23-membered ring), the ring closure, isolated yield was found to be 71%.
In the case of `Cc1ccc([S@@](=O)(F)=NC(=O)c2ccc(C(=O)N=[S@@](=O)(Oc3ccccc3CNCCNCc3ccccc3[O-])c3ccc(C)cc3)cc2)cc1` [(S,S)-3f], the ring closure, isolated yield in data set [2] (22-membered ring) came out at 75%.
On to `Cc1ccc([S@@](=O)(F)=NC(=O)c2ccc(Oc3ccc(C(=O)N=[S@@](=O)(Oc4cccc(Oc5cccc(Oc6cccc([O-])c6)c5)c4)c4ccc(C)cc4)cc3)cc2)cc1` [(S,S)-3k], for which the ring closure, isolated yield in data set [2] (28-membered ring) worked out at 85%.
On to `Cc1ccc([S@@](=O)(F)=NC(=O)c2ccc(Oc3ccc(C(=O)N=[S@@](=O)(Oc4ccc(C(C)(C)c5cccc(C(C)(C)c6ccc([O-])cc6)c5)cc4)c4ccc(C)cc4)cc3)cc2)cc1` [(S,S)-3o (diphenyl ether)], for which the ring closure, isolated yield in data set [2] (30-membered ring) turned out to be 64%.
Take `Cc1ccc([S@@](=O)(F)=NC(=O)c2cccc(C(=O)N=[S@@](=O)(Oc3ccc(SSc4ccc([O-])cc4)cc3)c3ccc(C)cc3)n2)cc1` [(S,S)-3r]: in data set [2] (21-membered ring), the ring closure, isolated yield was determined as 71%.
The same measure, in the same setting: for `Cc1ccc([S@@](=O)(F)=NC(=O)c2ccc(C(=O)N=[S@@](=O)(Oc3ccc(Cc4ccc([O-])cc4)cc3)c3ccc(C)cc3)cc2)cc1` [(S,S)-3u] the value was 54%.
As for `Cc1ccc([S@@](=O)(F)=NC(=O)c2ccc(C(=O)N=[S@@](=O)(Oc3ccc(Oc4ccc([O-])cc4)cc3)c3ccc(C)cc3)cc2)cc1` [(S,S)-3v], the ring closure, isolated yield in data set [2] (21-membered ring) is 34%.
The same measure, in the same setting: to `Cc1ccc([S@@](=O)(F)=NC(=O)c2ccc(C(=O)N=[S@@](=O)(Oc3ccc(C(C)(C)c4ccc([O-])cc4)cc3)c3ccc(C)cc3)cc2)cc1` [(S,S)-3w] belongs 62%; to `Cc1ccc([S@@](=O)(F)=NC(=O)c2ccc(C(=O)N=[S@@](=O)(Oc3ccc(C(c4ccc([O-])cc4)(C(F)(F)F)C(F)(F)F)cc3)c3ccc(C)cc3)cc2)cc1` [(S,S)-3x], 33%.
Consider `Cc1ccc([S@@](=O)(F)=NC(=O)c2ccc(-c3ccc(C(=O)N=[S@@](=O)(Oc4ccc(C(C)(C)c5cccc(C(C)(C)c6ccc([O-])cc6)c5)cc4)c4ccc(C)cc4)cc3)cc2)cc1` [(S,S)-3y], for which the ring closure, isolated yield in data set [2] (29-membered ring) was 37%.
As to `Cc1ccc([S@@](=O)(F)=NC(=O)c2ccc(-c3ccc(C(=O)N=[S@@](=O)(Oc4ccc(Cc5ccc([O-])cc5)cc4)c4ccc(C)cc4)cc3)cc2)cc1` [[1+1] of 4f (not observed)], in data set [2] (25-membered ring), the ring closure, isolated yield turned out to be 0%.
On the same count and under the same terms, for `Cc1ccc([S@@](=O)(F)=NC(=O)c2ccc(-c3ccc(C(=O)N=[S@@](=O)(Oc4ccc(Oc5ccc([O-])cc5)cc4)c4ccc(C)cc4)cc3)cc2)cc1` [[1+1] of 4g (not observed)] the value was 0%; for `Cc1ccc([S@@](=O)(F)=NC(=O)c2ccc(-c3ccc(C(=O)N=[S@@](=O)(Oc4ccc(C(C)(C)c5ccc([O-])cc5)cc4)c4ccc(C)cc4)cc3)cc2)cc1` [[1+1] of 4i (not observed)], 0%; for `Cc1ccc([S@@](=O)(F)=NC(=O)c2ccc(-c3ccc(C(=O)N=[S@@](=O)(Oc4ccc(C(c5ccc([O-])cc5)(C(F)(F)F)C(F)(F)F)cc4)c4ccc(C)cc4)cc3)cc2)cc1` [[1+1] of 4j (not observed)], 0%.
